Read-outs that look alike come from different tables or passages of the source.
How the values were obtained:
[1] = tested on: T24 human bladder carcinoma cells; details: T24 human bladder carcinoma, cited from earlier work
[2] = biological target: T1, human A2AAR (Homo sapiens, UniProt P29274); experiment: cAMP accumulation assay in CHO-A2A cells; format: cell-based
T1 construct: expressed in transfected cells
Description: (§1) The determination of cAMP accumulation in recombinant CHO and in Jurkat-T cells was performed as previously described.

[3] = biological target: T1, human A2AAR; format: binding
Description: The preparations of CHO and HeLa membranes recombinantly (or natively) expressing human A2A and/or A2BAR subtypes were performed as previously described [5]. Membranes from HEK-A2B or A2A cells, which were used for some of the radioligand competition binding studies, were purchased from Perkin Elmer (Waltham, USA). The preparation of Jurkat-T cell membranes was performed as follows: a Jurkat-T cell suspension was centrifuged in 50 ml falcon tubes at 200 g, 4° C, 5 min. The supernatant was discarded and the cell pellets were quickly frozen at –80° C. The defrosted pellets were then resuspended in ice-cold 25 mM Tris-buffer, 0.32 M sucrose, 1 mM ethylenediaminetetraacetic acid (EDTA), 0.1 mM phenylmethanesulfonylfluoride (PMSF), pH 7.4, and homogenized with an Ultra-Turrax (30 s on ice). The homogenate was centrifuged for 10 min at 1000 g at 4° C. The resulting pellets were discarded and the supernatant was centrifuged for 1 h at 48.000 g at 4° C. Pellets containing the membranes were resuspended in aqua bidest., homogenized with an Ultra-Turrax (30 s on ice) and centrifuged under the same conditions. The supernantant was discarded and the pellets were resuspended in 50 mM Tris-buffer, pH 7.4 and homogenized with a glass Teflon homogenizer on ice. […] The protein content of all membrane preparations was determined with the Lowry method [58].

[4] = biological target: T2, human A2BAR (Homo sapiens, UniProt P29275); experiment: biochemical
T2 sequence (P29275 1-332): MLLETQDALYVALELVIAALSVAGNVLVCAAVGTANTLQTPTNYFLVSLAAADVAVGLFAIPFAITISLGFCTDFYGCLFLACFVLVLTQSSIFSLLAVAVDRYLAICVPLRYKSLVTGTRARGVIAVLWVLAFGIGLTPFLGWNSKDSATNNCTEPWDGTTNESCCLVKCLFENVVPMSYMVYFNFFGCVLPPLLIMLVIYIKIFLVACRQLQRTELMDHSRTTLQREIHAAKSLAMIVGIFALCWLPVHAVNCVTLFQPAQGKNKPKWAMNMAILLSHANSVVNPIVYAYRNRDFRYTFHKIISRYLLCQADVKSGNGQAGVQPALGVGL
Description: (§4) The preparations of CHO and HeLa membranes recombinantly (or natively) expressing human A2A and/or A2BAR subtypes were performed as previously described [5]. Membranes from HEK-A2B or A2A cells, which were used for some of the radioligand competition binding studies, were purchased from Perkin Elmer (Waltham, USA). […] The protein content of all membrane preparations was determined with the Lowry method [58].

[5] = biological target: T1, human A2AAR; details: vs [3H]MSX-2 (1 nM), A2AAR expressing HEK or CHO membranes, read-out: Ki ± SEM, cited from earlier work
[6] = tested on: CHO-K1 cell membranes (non-transfected); experiment: Radioligand affinity (saturation or homologous competition) at CHO cells; format: binding, Chinese hamster
Description: (§2) Radioligand receptor binding experiments at membrane preparation of native (HeLa) and recombinant cells (CHO- or HEK cells recombinantly expressing A2A and/or A2BARs) using the A2B-selective antagonist radioligand [³H]PSB-603 (spec. activity: 79 Ci/mmol) to detect A2BARs were performed as previously described. Competition binding experiments at various membrane preparations of native (HeLa, Jurkat-T) and recombinant cells (CHO or HEK cells expressing A2A and/or A2BARs) using the A2A-selective antagonist radioligand [^3H]MSX-2 (spec. activity: 85 Ci/mmol) to detect A2AARs were performed in analogy to described procedures. […] Non-specific binding was determined in the presence of unlabeled MSX-2, or CGS-15943, respectively (10 µM), both giving identical results.
(§3) The assay was performed in a final volume of 400 µl containing 4 µl of test compound dissolved in DMSO, 196 µl buffer (50 mM Tris-HCl, 10 mM MgCl2 pH 7.4), 100 µl of radioligand solution in the same buffer (5 nM), and 100 µl of membrane preparation (10 to 200 µg of protein per vial, 2 U/ml ADA 20 min incubation at rt). […] All data were analyzed with GraphPad Prism, Version 4 (GraphPad Inc., La Jolla, CA).

[7] = tested on: isolated perfused mouse heart; details: A2B knockout vs wildtype mice, ref [51]; cited from earlier work
[8] = tested on: HEK293 (native) cells, A2B ≥ A2A; details: cited from earlier work
[9] = biological target: T3, A2A and A2BARs in HeLa cell membranes (Homo sapiens, UniProt P29274+P29275); experiment: Radioligand affinity at HeLa cells (A2B ≥ A2A); format: binding; details: homologous competition, read-out: KD ± SEM
T3 construct: HeLa cells natively expressing human A2A and A2BARs; endogenous in cells; host or cells: HeLa
T3 sequence (P29274 whole entry, one chain of several): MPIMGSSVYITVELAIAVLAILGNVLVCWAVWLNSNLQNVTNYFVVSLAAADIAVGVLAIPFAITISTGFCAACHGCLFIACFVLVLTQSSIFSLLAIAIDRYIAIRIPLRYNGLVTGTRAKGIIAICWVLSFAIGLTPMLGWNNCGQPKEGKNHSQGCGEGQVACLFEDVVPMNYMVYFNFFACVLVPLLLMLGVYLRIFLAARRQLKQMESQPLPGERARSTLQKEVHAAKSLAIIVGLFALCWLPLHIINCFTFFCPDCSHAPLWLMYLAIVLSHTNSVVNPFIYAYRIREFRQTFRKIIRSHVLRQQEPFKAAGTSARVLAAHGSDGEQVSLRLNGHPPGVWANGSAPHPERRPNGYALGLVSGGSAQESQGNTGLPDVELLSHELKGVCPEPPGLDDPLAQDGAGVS
Description: as §2, §3

[10] = biological target: T2, human A2BAR; set-up: expressed in transfected cells; method as in ref [12] (a number printed in a supplementary file, which may have a reference list of its own: not looked up in the article's list); details: HEK or CHO-A2B (A2B); saturation; ref [12]; read-out: KD ± SEM; cited from earlier work
[11] = biological target: A2A and A2BARs in intact primary human lymphocytes; experiment: Radioligand affinity at intact primary human T-lymphocytes, stimulated with phytohemagglutinin; format: binding; details: T-Lymphocytes stimulated (A2A > A2B); intact cells; homologous competition; read-out: KD ± SEM
[12] = biological target: T1, human A2AAR; experiment: Radioligand affinity at HEK or CHO-A2A; format: binding; details: saturation
Description: as §2, §3

[13] = biological target: T4, HA-tagged human A2AAR (Homo sapiens, UniProt P29274); experiment: Radioligand affinity at CHO-HA-A2A; format: binding; details: homologous competition
T4 construct: HA; expressed in transfected cells
T4 sequence (P29274 whole entry): as the sequence (P29274 whole entry, one chain of several) above

[14] = biological target: A2A and A2BARs in intact primary human lymphocytes; experiment: Radioligand affinity at intact primary human T-lymphocytes, unstimulated; format: binding; details: T-Lymphocytes unstimulated (A2A > A2B), intact cells, homologous competition
[15] = biological target: T5, A2A and A2BARs in Jurkat-T cell membranes (Homo sapiens, UniProt P29274+P29275); experiment: Radioligand affinity at Jurkat-T cells (A2B ≥ A2A); format: binding; details: homologous competition
T5 construct: Human Jurkat-T cells natively expressing A2A and A2BARs; endogenous in cells; host or cells: Jurkat-T
T5 sequence (P29274 whole entry, one chain of several): as above
Description: as §2
as §3, with “CA). […]” for “CA).”

[16] = tested on: HEK-A2B cells, A2B ≥ A2A; details: cited from earlier work
[17] = biological target: T2, human A2BAR; experiment: cell-based
Description: as §1

[18] = tested on: Human prostatic carcinoma cells PC-3; set-up: method as in Wei Q, et al. Purinergic Signal. 2013; 9: 271-280. [23]; details: et al. Purinergic Signal. 2013, 9: 271-280. [23], cited from earlier work
[19] = biological target: T6, A2BARs in HeLa cell membranes (Homo sapiens, UniProt P29275); format: binding; details: vs [3H]PSB-603 (0.3 nM); HeLa cells, A2B ≥ A2A; read-out: Ki ± SEM
T6 construct: HeLa cells natively expressing human A2A and A2BARs; endogenous in cells; host or cells: HeLa
Description: as §4

[20] = biological target: T7, A2BARs in Jurkat-T cell membranes (Homo sapiens, UniProt P29275); format: binding; details: vs [3H]PSB-603 (0.3 nM); Jurkat-T cells, A2B ≥ A2A; read-out: Ki ± SEM
T7 construct: Human Jurkat-T cells natively expressing A2A and A2BARs; endogenous in cells; host or cells: Jurkat-T
Description: The preparation of Jurkat-T cell membranes was performed as follows: a Jurkat-T cell suspension was centrifuged in 50 ml falcon tubes at 200 g, 4° C, 5 min. The supernatant was discarded and the cell pellets were quickly frozen at –80° C. The defrosted pellets were then resuspended in ice-cold 25 mM Tris-buffer, 0.32 M sucrose, 1 mM ethylenediaminetetraacetic acid (EDTA), 0.1 mM phenylmethanesulfonylfluoride (PMSF), pH 7.4, and homogenized with an Ultra-Turrax (30 s on ice). The homogenate was centrifuged for 10 min at 1000 g at 4° C. The resulting pellets were discarded and the supernatant was centrifuged for 1 h at 48.000 g at 4° C. Pellets containing the membranes were resuspended in aqua bidest., homogenized with an Ultra-Turrax (30 s on ice) and centrifuged under the same conditions. The supernantant was discarded and the pellets were resuspended in 50 mM Tris-buffer, pH 7.4 and homogenized with a glass Teflon homogenizer on ice. The resuspended and homogenzied pellets were aliquoted and stored at –80° C until use.
After an incubation time of 60 min at rt, the assay mixture was filtered through GF/B glass fiber filters. Washing buffer: 50 mM Tris-HCl buffer, 0.1% bovine serum albumin (BSA), pH 7.4.

[21] = biological target: T8, A2A and A2BARs natively expressed in Jurkat-T cells (Homo sapiens, UniProt P29274+P29275); details: read-out: KB-value ± SEM, cAMP accumulation, antagonist potency versus NECA
T8 sequence (P29274 whole entry, one chain of several): as above
Description: as §1

[22] = biological target: T8, A2A and A2BARs natively expressed in Jurkat-T cells; set-up: method as in ref [15] (a number printed in a supplementary file, which may have a reference list of its own: not looked up in the article's list); details: cAMP accumulation, up to 10 µM, ref [15]; cited from earlier work
[23] = tested on: prostate cancer cell lines (A2B > A2A); details: three prostate cancer cell lines (A2B > A2A); ref [13]; cited from earlier work
[24] = biological target: T2, human A2BAR; set-up: expressed in transfected cells; details: vs [3H]PSB-603 (0.3 nM); A2BAR expressing HEK or CHO membranes; ref [14]; read-out: Ki ± SEM; cited from earlier work
[25] = biological target: T9, human A2AAR and A2BAR in HEK293T cells (Homo sapiens, UniProt P29274+P29275); experiment: Dynamic mass redistribution (DMR) assay in HEK293T cells transfected with A2A and A2BAR cDNA; format: cell-based; details: 100 nM agonist
T9 construct: expressed in transfected cells; host or cells: HEK293T
T9 sequence (P29274 whole entry, one chain of several): as above
Description: In brief, 24 h before the assay, cells were seeded at a density of 7,500 cells per well in 384-well sensor microplates with 40 µl of growth medium and cultured for 24 h (37° C, 5 % CO2) to obtain 70–80% confluent monolayers. […] Hereafter, the sensor plate was scanned and a baseline optical signature was recorded before adding 10 µl of test compound dissolved in assay buffer containing 0.1% DMSO and DMR responses were monitored for at least 8,000 s using an EnSpire® Multimode Plate Reader (PerkinElmer, Waltham, MA, USA) by a label-free technology. Data were analyzed using EnSpire Workstation Software v 4.10.

[26] = biological target: T2, human A2BAR; set-up: expressed in transfected cells; details: cAMP accumulation; CHO-A2B; ref [13]; cited from earlier work
[27] = biological target: T9, human A2AAR and A2BAR in HEK293T cells; experiment: cAMP assay at HEK-A2A cells transiently transfected with increasing amounts of A2BAR; format: cell-based; details: 100 nM agonist, A2BAR cDNA 0.25–1.5 µg
Description: HEK293T cells were transiently transfected with the corresponding cDNA (pcDNA3.1+-hA2B, pcDNA3.1+-hA2A) by the polyethylenimine (Sigma) method [62]. The determination of AR-induced cAMP accumulation in HEK293T cells transiently expressing A2A and A2BARs was performed as previously described [62].

[28] = ref Phelps PT, et al. Eur J Pharmacol. 2006, 536: 28-37. [20]
[29] = ref Cooper J, et al. Br J Pharmacol. 1997, 122: 546-550. [18]
[30] = ref Hinz S, et al. J Pharmacol Exp Ther. 2014, 3: 427-436. [15]
[31] = ref Gao Z, et al. Biochem Pharmacol. 2014, 90: 297-306. [17]

T1 sequence (P29274 whole entry): as the sequence (P29274 whole entry, one chain of several) above

CCCn1c(=O)c2[nH]c(-c3ccc(OCC(=O)Nc4ccc(C#N)cc4)cc3)nc2n(CCC)c1=O [MRS1754]
A2B antagonist IC50/KB [1, 28]: MRS1754: 665 nM

C#CCn1c(=O)c2c(nc(C=Cc3cccc(OC)c3)n2C)n(CCCO)c1=O [MSX-2, 3-(3-hydroxypropyl)-7-methyl-8-(m-methoxystyryl)-1-propargylxanthine]
Kb ([2]; read-out: KB-value ± SEM): 14.5 ± 3.6 nM | Ki [3]: 5 ± 0.6 nM | Ki [4]: > 1000 nM | Ki ([5]; ref [13]): 2.03 nM

CCNC(=O)[C@H]1O[C@@H](n2cnc3c(N)nc(NCCc4ccc(CCC(=O)O)cc4)nc32)[C@H](O)[C@@H]1O [[³H]CGS-21680]
KD ± SEM [6]: No binding

Nc1nc2c(cnn2CCc2ccccc2)c2nc(-c3ccco3)nn12 [SCH58261]
block of NECA-induced increase in coronary flow [7]: blocked NECA-induced increase in coronary flow to a higher degree in KO than in WT mice | A2A antagonist IC50/KB [1, 28]: SCH58261:405 nM

CCCn1c(=O)c2[nH]c(C3CCCC3)nc2n(CCC)c1=O [DPCPX, 8-cyclopentyl-1,3-dipropylxanthine]
A2B antagonist IC50/KB [8, 29]: DPCPX: 97.7 nM

CCCn1c(=O)[nH]c2nc(-c3ccc(S(=O)(=O)N4CCN(c5ccc(Cl)cc5)CC4)cc3)[nH]c2c1=O [[³H]PSB-603]
Kd [9]: 2.49 ± 1.39 nM | Kd [10]: 0.403 ± 0.188 nM | Kd [11]: 0.241 ± 0.108 nM | KD ± SEM [6]: no high-affinity binding | KD ± SEM [12]: no high-affinity binding | KD ± SEM [13]: no high-affinity binding | KD ± SEM [14]: High affinity binding | Kd ([14]; read-out: KD ± SEM): 0.68 ± 0.242 nM | KD ± SEM [15]: high affinity binding | Kd ([15]; read-out: KD ± SEM): 2.09 ± 0.72 nM

Nc1ncnc2c1ncn2[C@@H]1O[C@H](CO)[C@@H](O)[C@H]1O [adenosine]
EC50 [8, 29]: 65 µM | EC50 [16, 30]: 2510 nM

CCCn1c(=O)[nH]c2nc(-c3ccc(S(=O)(=O)N4CCN(c5ccc(Cl)cc5)CC4)cc3)[nH]c2c1=O [PSB-603, 8-(4-(4-(4-chlorophenyl)-piperazine-1-sulfonyl)phenyl)-1-propylxanthine]
Kb [17]: 0.358 nM | Kb ([18]; versus BAY60-6583, ref Wei Q, read-out: A2B antagonist KB): 1 nM | Ki ([5]; ref [12]): > 10000 nM | Ki [19]: 1.43 ± 0.73 nM | Ki [20]: 1.43 ± 0.58 nM | Kb [21]: 0.871 nM

N#Cc1c(N)nc(SCC(N)=O)c(C#N)c1-c1ccc(OCC2CC2)cc1 [BAY60-6583]
EC50 (result in words) [22]: low signal | EC50 ([2]; cAMP accumulation, CHO-A2A): > 10 µM | induction of cAMP accumulation [23]: concentration-dependently induced cAMP accumulation | EC50 [8, 31]: 0.296 µM | Ki [24]: 212 ± 20 nM | change in DMR signal with increasing amounts of transiently transfected A2BAR [25]: time-dependent increase in the signal | EC50 ([18]; ref Wei Q): 7.2 nM | EC50 [1, 31]: 43 nM | Ki [19]: 212 ± 58 nM | Ki [20]: 2960 nM | EC50 [16, 31]: 6.14 nM | EC50 [16, 30]: 505 nM | EC50 [26]: 165 nM | change in cAMP accumulation with increasing amounts of transiently transfected A2BAR [27]: significant increase in cAMP accumulation
